Assays:
[1] = test system: STEME (common chickweed); experiment: Pre-plant incorporated (PPI) herbicidal activity, cool season; format: in vivo, Stellaria media; details: pre-plant incorporated; lowest tested rate with 80% or greater inhibition; about 14 days
Protocol: (§1) In another set of tests, the pre-plant incorporated (PPI) activity of compounds of this invention was evaluated on the same species as for the pre-emergence tests described above. In the PPI tests the following procedure, designed to simulate PPI application, was used.
(§2) A pre-prepared topsoil mixture (described above) was placed in a pot and compacted to a depth of 1.0 to 1.25 cm from the top of the pot. Seeds of each of several monocotyledonous and dicotyledonous annual plant species were placed on top of the soil. A sufficient quantity of soil to cover the seeds and level fill the pot was weighed into an open container. A known amount of the test compound was dissolved or suspended in an organic solvent and applied by spraying to this cover soil. The cover soil was thoroughly mixed to distribute the test compound throughout the cover soil, and was then applied as a cover layer over the seeds. Untreated soil was used as a cover layer for control pots. After treatment the plants were placed in a greenhouse where they received 0.64 cm of overhead irrigation. All subsequent watering consisted of a light overhead mist and/or subirrigation as needed for germination and growth. Tables 9 and 10 below relate to warm season plant species which were placed after pre-emergence treatment in a greenhouse with a 30/21° C. day/night temperature regime. Tables 11 and 12 below relates to cool season plant species placed after pre-emergence treatment in a greenhouse or growth chamber with an 18/13° C. day/night temperature regime. Only the compounds of Examples 1, 6, 8, 11, 13 and 15-20 were included in PPI tests.
(§3) Approximately 14 days after planting and treating, the plants were observed and herbicidal efficacy recorded as percent inhibition by comparison with untreated plants.

[2] = test system: SETFA (giant foxtail); experiment: Pre-plant incorporated (PPI) herbicidal activity, warm season; format: in vivo, Setaria faberi; details: for PPI activity GR80, SETFA: pre-plant incorporated, lowest tested rate with 80% or greater inhibition, about 14 days
Protocol: as §1, §2, §3

[3] = test system: SETVI (green foxtail); experiment: Pre-plant incorporated (PPI) herbicidal activity, cool season; format: in vivo, Setaria viridis; details: for PPI activity GR80, SETVI: pre-plant incorporated, lowest tested rate with 80% or greater inhibition, about 14 days; for Percent inhibition SETVI: weed, PPI application
Protocol: as §1, §2, §3

[4] = test system: ALOMY (blackgrass); experiment: Post-emergence herbicidal activity, cool season; format: in vivo, Alopecurus myosuroides; details: abraded plants sprayed at 300, 100, 30 and 10 g/ha; about 14 days after treatment
Outline: (§4)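 GR80 values derive from percent growth inhibition scored approximately 14 days post-spray against abraded, unsprayed controls under an 18/13 °C regime. Foliar application to sandblast-abraded plants used rates of 300, 100, 30 and 10 g/ha in 50:50 acetone/water at 3,100 l/ha.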

[5] = test system: BROTE (downy brome); experiment: Pre-plant incorporated (PPI) herbicidal activity, cool season; format: in vivo, Bromus tectorum; details: for PPI activity GR80, BROTE: pre-plant incorporated, lowest tested rate with 80% or greater inhibition, about 14 days; for Percent inhibition BROTE: weed, PPI application
Protocol: as §1, §2, §3

[6] = test system: PANDI (fall panicum); experiment: Pre-emergence herbicidal activity, warm season; format: in vivo, Panicum dichotomiflorum; details: GR80 = lowest tested rate (300, 100, 30, 10 g/ha) with 80% or greater inhibition; approx. 14 days after treating; 30/21° C.
Outline: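 Activity is expressed as the rate giving 80% inhibition, with 300, 100, 30 and 10 g/ha typically tested. An asterisk marks activity short of 80% at the top rate. Warm-season grasses were held at 30/21 °C; cool-season blackgrass and wild buckwheat at 18/13 °C; scoring at about 14 days.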

[7] = test system: BROTE (downy brome); experiment: Post-emergence herbicidal activity, cool season; format: in vivo, Bromus tectorum; details: abraded plants sprayed at 300, 100, 30 and 10 g/ha; about 14 days after treatment
Outline: as §4

Question: `C=C(CC(F)(F)S(=O)(=O)c1ncn(C(=O)N(CC)CC)n1)C[Si](C)(C)C` [Example 20] was tested. Which “PPI activity GR80, STEME” value [1] did it give?
Answer: * (activity observed, at least at highest rate, but <80% inhibition)

Question: And the “Percent inhibition SETFA” value ([2]; PPI application, 10 g/ha)?
Answer: 0%

Question: What about the “Percent inhibition SETFA” value ([2]; PPI application, 30 g/ha) of the same compound?
Answer: 70%

Question: And the “Percent inhibition SETFA” value ([2]; PPI application, 100 g/ha)?
Answer: 99%

Question: What about the “Percent inhibition SETFA” value ([2]; PPI application, 300 g/ha) of the same compound?
Answer: 90%

Question: And the “Percent inhibition SETFA” value ([2]; PPI application, 900 g/ha)?
Answer: 100%

Question: What about the “PPI activity GR80, SETFA” value [2] of the same compound?
Answer: 100 g/ha

Question: What about the “PPI activity GR80, SETVI” value [3] of the same compound?
Answer: 30 g/ha

Question: And the “Percent inhibition SETVI” value ([3]; 10 g/ha)?
Answer: 0%

Question: What about the “Percent inhibition SETVI” value ([3]; 30 g/ha) of the same compound?
Answer: 70%

Question: And the “Percent inhibition SETVI” value ([3]; 100 g/ha)?
Answer: 40%

Question: What about the “Percent inhibition SETVI” value ([3]; 300 g/ha) of the same compound?
Answer: 100%

Question: And the “Percent inhibition SETVI” value ([3]; 900 g/ha)?
Answer: 100%

Question: What about the “Post-emergence activity GR80, ALOMY” value [4] of the same compound?
Answer: [empty]

Question: What about the “PPI activity GR80, BROTE” value [5] of the same compound?
Answer: 300 g/ha

Question: What about the “Percent inhibition BROTE” value ([5]; 10 g/ha) of the same compound?
Answer: 0%

Question: And the “Percent inhibition BROTE” value ([5]; 30 g/ha)?
Answer: 0%

Question: And the “Percent inhibition BROTE” value ([5]; 100 g/ha)?
Answer: 0%

Question: And the “Percent inhibition BROTE” value ([5]; 300 g/ha)?
Answer: 40%

Question: And the “Percent inhibition BROTE” value ([5]; 900 g/ha)?
Answer: 50%

Question: And the “Pre-emergence activity (GR80) PANDI” value [6]?
Answer: 300 g/ha

Question: And the “Post-emergence activity GR80, BROTE” value [7]?
Answer: [empty]

Question: `CCN(CC)C(=O)n1cnc(S(=O)(=O)C(F)F)n1` [Example 15, 1-(N,N-diethylcarbamoyl)-3-(difluoromethylsulfonyl)-1,2,4-triazole] was tested. Which “PPI activity GR80, STEME” value [1] did it give?
Answer: 300 g/ha

Question: And the inhibition at 30 g/ha ([2]; Setaria faberi, PPI application, 30 g/ha, read-out: Percent inhibition SETFA)?
Answer: 40%

Question: And the inhibition at 100 g/ha ([2]; Setaria faberi, PPI application, 100 g/ha, read-out: Percent inhibition SETFA)?
Answer: 99%

Question: What about the inhibition at 300 g/ha ([2]; Setaria faberi, PPI application, 300 g/ha, read-out: Percent inhibition SETFA) of the same compound?
Answer: 100%

Question: And the inhibition at 900 g/ha ([2]; Setaria faberi, PPI application, 900 g/ha, read-out: Percent inhibition SETFA)?
Answer: 100%

Question: And the “PPI activity GR80, SETFA” value [2]?
Answer: 30 g/ha

Question: And the “PPI activity GR80, SETVI” value [3]?
Answer: 100 g/ha

Question: What about the “Post-emergence activity GR80, ALOMY” value [4] of the same compound?
Answer: [empty]

Question: And the “PPI activity GR80, BROTE” value [5]?
Answer: * (activity observed, at least at highest rate, but <80% inhibition)

Question: What about the “Pre-emergence activity (GR80) PANDI” value [6] of the same compound?
Answer: 100 g/ha

Question: And the “Post-emergence activity GR80, BROTE” value [7]?
Answer: [empty]
